Test results as given in patent US20230256094A1, “CANCER RADIOSENSITIZATION BY IN SITU FORMATION OF GOLD NANOPARTICLES AND/OR GOLD NANOCLUSTERS” (BOARD OF REGENTS, THE UNIVERSITY OF TEXAS SYSTEM, priority 2020, published 2023).

Tests used:
[1] = test system: PANC1 pancreatic cancer; assay: MTT assay of cell viability after x-ray irradiation; assay type: cell-based, human; settings: 24 hours after irradiation, all radiation dosages greater than 0 Gy, 0.20 mM
Method: FIG. 26 presents evidence of radiosensitization, quantifying the cell viability resulting from X-ray damage through MTT assay measured 24 and 96 hours after x-ray irradiation, resulting from 24 hour, 0.20 mM Au^3+ treatments (right bar in each dosage pair) compared against non-treated (left bar in each dosage pair) combined with either 0 Gy or 8 Gy x-ray irradiation. Treatments are in full cell media to PANC1 pancreatic cancer.

[2] = test system: PANC1 pancreatic cancer; assay: JC-1 mitochondrial depolarization assay (cell viability); assay type: cell-based; settings: 0.20-1.50 mM, 24 hour
Method: FIG. 19 reports cell viability as a function of 24 hour Au^3+ treatments at varied concentrations determined via JC-1 mitochondrial depolarization assay and in full cell media to PANC1 pancreatic cancer.
(§1) The JC-1 assay measures the charge potential of the mitochondria of cells through the fluorometric ratio of the JC-1 dye (ThermoFisher Scientific, Waltham, Mass.). JC-1 is a cationic carbocyanine dye that accumulates in mitochondria. The dye exists as a monomer at low concentrations and yields green fluorescence, similar to fluorescein. […] These characteristics make JC-1 a sensitive marker for mitochondrial membrane potential. In other words, mitochondrial depolarization is indicated by a decrease in the red/green fluorescence intensity ratio. Mitochondrial depolarization is an indicator of reduced cell viability.
2.4. Characterize cytotoxicity of gold atom treatment. An MTS viability assay was used with 0-2.0 mM Au^3+ dose range. […] MTS assay was not usable at concentrations >0.75 mM Au^3+ due to intracellular formation of larger GNPs and their absorbance interfering with the MTS results. Therefore, at higher Au^3+ we switched to AO/PI live-dead staining (FIG. 15) and JC-1 mitochondrial depolarization assays (FIG. 19). JC-1 assay indicated cell viability ˜80% for concentrations between 0.20-1.50 mM Au^3+.

[3] = test system: PANC1 xenografts in nu/nu mice; assay: Tumor volume after 10 Gy X-ray irradiation in xenografts; assay type: in vivo; settings: 48 hours after treatment with 1.00 mM
[4] = test system: PANC1 pancreatic cancer; assay: JC-1 assay of mitochondrial polarization after irradiation; assay type: cell-based, human; settings: 24 hr post-irradiation, 8 Gy
Method: (§2) FIG. 22 reports on a mechanistic study of radiosensitization quantifying mitochondrial depolarization through JC-1 assay measured at 0, 1, and 24 hours, resulting from 24 hour, 0.20 mM Au^3+ treatments (lower three) compared against non-treated (upper three) combined with either 0 Gy or 8 Gy x-ray irradiation. Treatments are in full cell media to PANC1 pancreatic cancer.
as §1
(§3) Further, we characterized the mechanisms of radiosensitization through (i) quantification of double stranded DNA breaks via y-H2AX Foci (FIG. 21), (ii) mitochondrial polarization via JC-1 assay (FIG. 22), (iii) NADP total (FIG. 23) and NADP:NADPH ratio (FIG. 24) via NADP(H) assay, and (iv) peroxidation production via TBARS assay (FIG. 25).

[5] = test system: PANC1 cells; assay: Clonogenic survival assay of radiosensitization; assay type: cell-based, human; settings: 0.20 mM, 24 hrs
Method: FIG. 20 presents evidence of radiosensitization resulting from 24 hour 0.20 mM Au^3+ treatments (lower plot) compared against non-treated (upper plot) determined via clonogenic survival assay and in full cell media to PANC1 pancreatic cancer.
2.5. Evaluate radiosensitization efficacy and radiosensitization mechanisms for in situ synthetized GNCs. Based on the studies described in Sections 2.3-2.4, we selected the following conditions for radiosensitization studies in cell culture: 24 hr media conditioning by cells, 10% FBS (v/v) within, and 0.20 mM Au^3+ for 24 hrs.
A standard clonogenic assay was used to evaluate radiosensitization efficacy of intracellular synthetized GNC in PANC1 cells (FIG. 20). […] Dose enhancement factor at 10% surviving fraction (DEF10%) was calculated at 1.317 indicative of a strong radiosensitization in Au^3+ treated cells.

[6] = test system: PANC1 pancreatic cancer; assay: NADP(H) assay after irradiation; assay type: cell-based, human; settings: 24 hr post-irradiation
Method: as §2, with “23” for “22”, “total NADP” for “mitochondrial depolarization”, “NADP” for “JC-1”, “(right four bars)” for “(lower three)”, “(left four bars)” for “(upper three)”
as §2, with “24” for “22”, “the ratio of NADP^+/NADPH” for “mitochondrial depolarization”, “NADP” for “JC-1”, “(right)” for “(lower three)”, “(left)” for “(upper three)”
as §3

[7] = test system: pancreatic non-cancerous cells (MS1); assay: Clonogenic assay after X-ray irradiation; assay type: cell-based; settings: 0.1 mM, 24 hours, X-rays 0 to 8 Gy
Method: Radiosensitization due to intracellular GNC formation (i.e., delivery of Au^3+) was compared between cancerous and non-cancerous cells using a standard clonal assay. For radiosensitization, cells were incubated with 0.1 mM of buffered chloroauric acid in cell culture media for 24 hours. Then, the cells were lifted and plated in 30 mm culture dishes at optimized cell densities for observation of colony formation following irradiation with X-rays at dosages ranging from 0 to 8 Gy (XRAD SmART). […] The radiosensitization results correlated well with the fluorescence images showing greater production of GNCs by cancerous cells (FIG. 6A-6B). For LTPA pancreatic cancer cells the surviving fraction values decreased by a factor of 2.3x and 3.5x for radiation of 4 Gy and 6 Gy, respectively, in cells treated with gold atoms compared to untreated control (FIG. 6B). This relative decrease in surviving fraction is similar or better than previously reported values observed in cells treated with pre-synthetized GNPs. We believe that the observed improvement in radiation efficiency in killing cancer cells might be associated with a strong nuclear localization of in situ synthetized GNCs.

[8] = test system: 3T3 mouse fibroblast cells; assay: MTS assay of radiosensitization after X-ray irradiation; assay type: cell-based; settings: 0 Gy
Method: Our initial evaluation of radiosensitization via intracellular GNP formation was performed with 3T3 mouse fibroblast cells. […] Radiosensitization with intracellular GNC formation (i.e., delivery of Au^3+) was compared with pre-fabricated albumin-coated GNCs (Albumin-GNC) prepared according to work by Xie^46 and control cells without treatment via MTS assay (FIG. 3B).
3T3 cells were first incubated with either 1 mM of sodium chloroaurate or albumin-GNCs (0.1 mM Au^0)in cell culture media for 10 hours. Then, the cells including the nontreated control were irradiated with X-rays at dosages of 0, 4 and 6 Gy in the X-ray X-RAD 225 CX irradiator system (Precision).
In our future studies we will use a standard clonogenic survival assay for quantitation of the radiosensitization effect.

## [Au+3].[Cl-].[Cl-].[Cl-].[Cl-].[H+] [Au^3+, chloroauric acid]
[1]
  cell viability vs untreated controls (MTT): significantly lower cell viability
[2]
  cell viability (JC-1): ~80%
[3]
  radiosensitization effect by tumor volume measurements: evidence of radiosensitization effect
[4]
  recovery of mitochondrial depolarization: no recovery in the mitochondrial depolarization
[5]
  Dose enhancement factor at 10% surviving fraction (DEF10%): 1.317
[5]; 2 Gy
  average surviving fraction: 47.3%
[5]; 4 Gy
  average surviving fraction: 7.3%
[5]; 6 Gy
  average surviving fraction: 2.2%
[6]
  NADP total lower than for non-treated cells: ~43%
  NADP:NADPH ratio larger than for non-treated cells: 181%
[7]
  radiosensitization in non-cancerous cells: no radiosensitization
[7]; listed as buffered chloroauric acid
  radiosensitization in non-cancerous cells: no significant radiosensitization
[8]
  cell viability / cytotoxicity, treated vs untreated cells: no difference in cell viability
[8]; listed as chloroauric acid
  cell viability / cytotoxicity, treated vs untreated cells: not cytotoxic
